In brackets after ≈: the same amount, converted by molar mass. Where a SMILES comes first, the peptide text is derived from it. [ ]: non-standard residue; d: D form. d2Nal = N[C@H](Cc1ccc2ccccc2c1)C(=O)O; Pip(4-aza) = O=C(O)[C@@H]1CNCCN1; dNMeF = CN[C@H](Cc1ccccc1)C(=O)O; Pip = O=C(O)[C@@H]1CCCCN1; dPip = O=C(O)[C@H]1CCCCN1

The nature of series [1]: Aqueous solubility was determined. The series is classed as physicochemical.
Series [2] deals with T1, Oxytocin receptor (Rattus norvegicus, UniProt P70536).
T1 sequence (P70536 whole entry): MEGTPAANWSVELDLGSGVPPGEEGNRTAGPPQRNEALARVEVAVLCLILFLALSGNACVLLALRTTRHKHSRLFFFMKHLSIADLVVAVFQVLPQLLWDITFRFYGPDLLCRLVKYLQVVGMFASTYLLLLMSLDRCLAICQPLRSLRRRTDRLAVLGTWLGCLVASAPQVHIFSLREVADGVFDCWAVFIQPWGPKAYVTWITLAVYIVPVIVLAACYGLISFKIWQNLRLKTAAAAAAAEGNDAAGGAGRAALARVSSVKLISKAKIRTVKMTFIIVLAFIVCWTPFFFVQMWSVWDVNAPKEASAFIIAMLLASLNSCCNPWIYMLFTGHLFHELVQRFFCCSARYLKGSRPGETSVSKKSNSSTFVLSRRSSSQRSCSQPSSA
The series is described as follows: Concentration required to displace 50% of [3H]oxytocin from rat uterine receptor.

The target of series [3] is T2, Oxytocin receptor (Homo sapiens, UniProt P30559).
T2 sequence (P30559 whole entry): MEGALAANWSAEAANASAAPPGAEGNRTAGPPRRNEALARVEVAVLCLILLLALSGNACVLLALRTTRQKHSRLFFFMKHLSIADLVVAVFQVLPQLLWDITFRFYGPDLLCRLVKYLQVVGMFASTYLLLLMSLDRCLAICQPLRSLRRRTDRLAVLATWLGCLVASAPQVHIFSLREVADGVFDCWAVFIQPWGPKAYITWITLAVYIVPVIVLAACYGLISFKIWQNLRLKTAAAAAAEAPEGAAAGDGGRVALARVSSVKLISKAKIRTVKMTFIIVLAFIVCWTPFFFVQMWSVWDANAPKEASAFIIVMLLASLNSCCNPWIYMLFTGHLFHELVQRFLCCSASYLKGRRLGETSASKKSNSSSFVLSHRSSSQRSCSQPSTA
Kind of series: Compound was evaluated for OT receptor affinity by displacement of [3H]OT from binding sites in uterine tissue taken from nonlabor pregnant women.

Series [4] concerns the target T1, Oxytocin receptor. Kind of series: Compound was evaluated for OT receptor affinity by displacement of [3H]OT from binding sites in uterine tissue taken from pregnant rats.
Series [5] deals with Rattus norvegicus. The series is described as follows: Dose required for 50% reduction of the contractile response of the uterus to OT (1 ug/kg, iv bolus) in DES-pretreated rats. It counts as functional.
Series [6] is filed under the species Rattus norvegicus. The series is described as follows: pA2 value was determined from regression analysis of log (dose ratio-1) vs -log [antagonist] (isolated uterus from DES-pretreated rats). The series is classed as functional. The note with it: read-out: pA2 (converted).
The next series has as its target Vasopressin V1a receptor (Rattus norvegicus, UniProt P30560). Kind of series: Concentration required to displace 50% of [3H]arginine vasopressin from rat liver arginine vasopressin 1A (AVP-V1a) site.
In series [7] the target is T3, Vasopressin V2 receptor (Rattus norvegicus, UniProt Q00788). The series is described as follows: Inhibition of [3H]arginine vasopressin binding to AVP-V2 site in rat kidney medulla. The series is classed as tissue-based.
T3 sequence (Q00788 whole entry): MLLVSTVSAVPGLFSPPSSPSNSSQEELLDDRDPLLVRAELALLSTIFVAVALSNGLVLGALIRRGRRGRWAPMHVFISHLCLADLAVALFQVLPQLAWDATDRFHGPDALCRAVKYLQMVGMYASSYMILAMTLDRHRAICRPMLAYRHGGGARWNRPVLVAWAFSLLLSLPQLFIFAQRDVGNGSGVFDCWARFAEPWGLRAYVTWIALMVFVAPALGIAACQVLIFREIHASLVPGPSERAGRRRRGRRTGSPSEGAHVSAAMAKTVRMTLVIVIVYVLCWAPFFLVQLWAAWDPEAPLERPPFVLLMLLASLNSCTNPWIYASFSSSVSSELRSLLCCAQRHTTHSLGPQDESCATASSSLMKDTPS
For series [8], the target named is T3, Vasopressin V2 receptor. The series is described as follows: Ability to inhibit AVP stimulation of adenylate cyclase activity in the rat kidney medulla (AVP-V2) receptor.
Series [9] is filed under the species Rattus norvegicus. Kind of series: Compound was evaluated for the inhibition of accumulation of total [3H]inositol phosphates stimulated by exposure of uterine slices from DES-pretreated rats to OT. It counts as functional.
The species named for series [10] is Rattus norvegicus. Kind of series: pA2 value by AVP (V1a) stimulated contraction of the isolated rat tail artery. The note with it: read-out: pA2 (converted). The series is classed as functional.
Series [11] is filed under the species Rattus norvegicus. Kind of series: pA2 value was determined from regression analysis of log (dose ratio-1) vs -log [antagonist] (OT stimulated contractions in isolated uterus from DES-pretreated rats). To be noted: read-out: pA2 (converted). The series is classed as functional.
For series [12], the species on record is Rattus norvegicus. The series is described as follows: Compound was evaluated for the inhibition of accumulation of total [3H]inositol phosphates stimulated by exposure of the tissue to OT. It counts as functional.
Series [13] deals with T3, Vasopressin V2 receptor. Kind of series: Concentration required to displace 50% of [3H]arginine vasopressin from rat kidney medullary (AVP-[…] site).
Series [14] deals with T4, Oxytocin receptor (Rattus norvegicus) (UniProt P70536).
T4 sequence (whole entry): T1 sequence (P70536 whole entry)
The series is described as follows: Inhibition of displacement of [3H]oxytocin from rat uterine receptor at 10 uM.

The target in series [15] is Vasopressin V1a receptor (Rattus norvegicus) (UniProt P30560). Kind of series: Displacement of [3H]arginine vasopressin from rat liver (AVP-V1a site) at 10 uM. A general note: Displacement assays read how much labelled ligand stays bound in the presence of the test substance.
Vasopressin V1a receptor (Rattus norvegicus), sequence (P30560 whole entry, looked up): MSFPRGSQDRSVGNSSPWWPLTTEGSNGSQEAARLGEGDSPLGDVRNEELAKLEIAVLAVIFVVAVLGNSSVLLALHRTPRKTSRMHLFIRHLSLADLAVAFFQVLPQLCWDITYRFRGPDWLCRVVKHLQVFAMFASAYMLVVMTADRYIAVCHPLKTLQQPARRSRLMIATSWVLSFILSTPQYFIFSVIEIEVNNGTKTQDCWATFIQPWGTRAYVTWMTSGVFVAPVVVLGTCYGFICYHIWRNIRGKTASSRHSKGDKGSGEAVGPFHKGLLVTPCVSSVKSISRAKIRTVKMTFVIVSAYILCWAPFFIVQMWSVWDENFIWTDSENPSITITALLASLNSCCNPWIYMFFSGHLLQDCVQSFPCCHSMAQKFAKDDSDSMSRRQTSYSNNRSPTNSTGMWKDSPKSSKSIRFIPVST
The target of series [16] is Vasopressin V2 receptor (Rattus norvegicus) (UniProt Q00788). The series is described as follows: Displacement of [3H]arginine vasopressin from rat kidney medullary (AVP-V2 site) at 10 uM. It counts as tissue-based.
Vasopressin V2 receptor (Rattus norvegicus), sequence (Q00788 whole entry): as the sequence (Q00788 whole entry) above

Vasopressin V1a receptor, sequence (P30560 whole entry): as the sequence (P30560 whole entry, looked up) above

`CC[C@H](C)[C@@H]1NC(=O)[C@@H](Cc2c[nH]c3ccccc23)NC(=O)[C@@H]2CCCN2C(=O)[C@@H](Cc2ccccc2)N(C)C(=O)[C@@H]2CNCCN2C(=O)[C@H]2CCCCN2C1=O` (cyclo(I[dPip][Pip(4-aza)][dNMeF]P[dW])) came in with a solubility in series [1] of 1400 µg/mL (≈ 1790 µM). For the same compound, the results for the concentration for half-maximal inhibition (IC50) at Oxytocin receptor [2], on Vasopressin V1a receptor and on Vasopressin V2 receptor [7] were 8.4 nM, 32000 nM and 690 nM, respectively. Moreover, the inhibition constant (Ki) came to 4.5 nM at Oxytocin receptor [3] and 3.4 nM on Oxytocin receptor [4]. In addition, in the series on Rattus norvegicus [5], the AD50 amounted to 0.101 mg/kg. Further, the Kb in the series filed under Rattus norvegicus [6] is 2.57 nM.

On to `CC[C@H](C)[C@@H]1NC(=O)[C@@H](Cc2c[nH]c3ccccc23)NC(=O)[C@@H]2CCCN2C(=O)[C@@H](Cc2c[nH]cn2)NC(=O)[C@@H]2CCCCN2C(=O)[C@H]2CCCCN2C1=O` (cyclo(I[dPip][Pip][dH]P[dW])) [listing 1 of 3 here], for which the concentration in solution in [1] (solubility) came to 2000 µg/mL (≈ 2650 µM). The IC50 at Vasopressin V1a receptor turned out to be 7400 nM; at Vasopressin V2 receptor [7] it was 5200 nM; against Vasopressin V2 receptor [8] it was 3100 nM.

Regarding `CC[C@H](C)[C@@H]1NC(=O)[C@@H](Cc2c[nH]c3ccccc23)NC(=O)[C@@H]2CCCN2C(=O)[C@@H](Cc2c[nH]cn2)NC(=O)[C@@H]2CCCCN2C(=O)[C@H]2CCCCN2C1=O` (cyclo(I[dPip][Pip][dH]P[dW])) [listing 2 of 3 here], in the series filed under Rattus norvegicus [9], the concentration for half-maximal inhibition (IC50) was 67 nM. The Kb in the series filed under Rattus norvegicus [10] is 871 nM; in the series filed under Rattus norvegicus [11] it was 2.51 nM.

Regarding `CC[C@H](C)[C@@H]1NC(=O)[C@@H](Cc2c[nH]c3ccccc23)NC(=O)[C@@H]2CCCN2C(=O)[C@@H](Cc2c[nH]cn2)NC(=O)[C@@H]2CCCCN2C(=O)[C@H]2CCC=NN2C1=O`, the concentration in solution in series [1] (solubility) came to 1900 µg/mL (≈ 2520 µM). The AD50 in the series with Rattus norvegicus [5] is 0.0903 mg/kg. Further, the IC50 was 42 nM in the series filed under Rattus norvegicus [12] and 1100 nM on Vasopressin V2 receptor [7]. In addition, in the series filed under Rattus norvegicus [6], the Kb was 1.51 nM.

On to `CC[C@H](C)[C@@H]1NC(=O)[C@@H](Cc2ccc3ccccc3c2)NC(=O)[C@@H]2CCCN2C(=O)[C@@H](Cc2ccccc2)N(C)C(=O)[C@H](CCCCN)NC(=O)[C@H]2CCCCN2C1=O` (cyclo(I[dPip]K[dNMeF]P[d2Nal])), for which the solubility in series [1] amounted to 1700 µg/mL (≈ 2100 µM). Further, the IC50 came to 13 nM on Oxytocin receptor [2], 1300 nM on Vasopressin V1a receptor and 110 nM on Vasopressin V2 receptor [7].

Turning to `CC[C@H](C)[C@@H]1NC(=O)[C@@H](Cc2c[nH]c3ccccc23)NC(=O)[C@@H]2CCCN2C(=O)[C@@H](Cc2c[nH]cn2)NC(=O)[C@@H]2CCCCN2C(=O)[C@H]2CCCCN2C1=O` (cyclo(I[dPip][Pip][dH]P[dW])) [listing 3 of 3 here], the AD50 with Rattus norvegicus [5] was 0.0013 mg/kg.

`CC[C@H](C)[C@@H]1NC(=O)[C@@H](Cc2c[nH]c3ccccc23)NC(=O)[C@@H]2CCCN2C(=O)[C@@H](Cc2ccccc2)N(C)C(=O)[C@H](CCCCN)NC(=O)[C@H]2CCCCN2C1=O` (cyclo(I[dPip]K[dNMeF]P[dW])): the 50% inhibitory concentration (IC50) on Vasopressin V1a receptor came to 1600 nM; at Vasopressin V2 receptor [13] it was 410 nM.

In [1], `CC[C@H](C)[C@@H]1NC(=O)[C@@H](Cc2ccc3ccccc3c2)NC(=O)[C@@H]2CCCN2C(=O)[C@@H](Cc2c[nH]cn2)NC(=O)[C@@H]2CCCCN2C(=O)[C@H]2CCCCN2C1=O` (cyclo(I[dPip][Pip][dH]P[d2Nal])) showed a solubility of 1500 µg/mL (≈ 1960 µM). Also, the half-maximal inhibitory concentration (IC50) at Oxytocin receptor [2] is 2.2 nM; in the series listed under Rattus norvegicus [12], 40 nM; on Vasopressin V1a receptor, 2600 nM; at Vasopressin V2 receptor [7] it was 910 nM; at Vasopressin V2 receptor [8], 810 nM. Besides, the results for the inhibition constant Ki on Oxytocin receptor [3] and at Oxytocin receptor [4] were 5.1 nM and 0.7 nM, respectively. Besides, the AD50 with Rattus norvegicus [5] was 0.102 mg/kg. Moreover, the Kb in the series listed under Rattus norvegicus [10] is 282 nM; in the series filed under Rattus norvegicus [6] it was 2.95 nM.

Turning to `CC[C@H](C)[C@@H]1NC(=O)[C@H](C)NC(=O)[C@@H]2CCCN2C(=O)[C@@H](Cc2ccccc2)N(C)C(=O)[C@@H]2CCCCN2C(=O)[C@H]2CCCCN2C1=O`, the inhibition stood at 0% in series [14], 0% in series [15] and 4% in series [16].

Take `CC[C@H](C)[C@@H]1NC(=O)[C@@H](Cc2ccccc2)NC(=O)[C@@H]2CCCN2C(=O)[C@@H](Cc2ccccc2)N(C)C(=O)[C@H](CCCN)NC(=O)[C@H]2CCC=NN2C1=O`: the concentration in solution in series [1] (solubility) was 1500 µg/mL (≈ 2020 µM). The AD50 in the series on Rattus norvegicus [5] was determined as 0.0716 mg/kg. Besides, in the series filed under Rattus norvegicus [6], the Kb was 3.39 nM. In addition, the IC50 at Vasopressin V1a receptor worked out at 800 nM.

Usually solubility stands for the concentration that dissolves in the medium under given conditions. In general, IC50 refers to the midpoint of a concentration-inhibition curve. The Ki is the dissociation constant of the complex between target and ligand, obtained from inhibition or displacement. Low values mean a stronger hold on the target, high ones a looser hold on the target. One may read the inhibition as how much of the control response was suppressed.

For the origin of these results see ChEMBL document CHEMBL1125324, “Development of a novel class of cyclic hexapeptide oxytocin antagonists based on a natural product” (J Med Chem, 1992).
